From article doi:10.1101/2020.07.01.182642v1 (biorxiv, 2020)
One block for each compound: values may come before it.

Assays:
Conditions in all cases: binder
[1] = molecular target: CLK1 (H148-I484) (Homo sapiens, UniProt P49759)
[2] = molecular target: CLK3 (R134-T484) (Homo sapiens, UniProt P49761)
[3] = molecular target: STK17A (Homo sapiens, UniProt Q9UEE5)
[4] = molecular target: TGFBR2 (Homo sapiens, UniProt P37173)
[5] = molecular target: AKT3 (Homo sapiens, UniProt Q9Y243)
[6] = molecular target: VRK1 (Homo sapiens, UniProt Q99986)
[7] = molecular target: CDC42BPG (Homo sapiens, UniProt Q6DT37)
[8] = molecular target: T1, GAK (Homo sapiens, UniProt O14976)
T1 sequence (O14976 1-1311): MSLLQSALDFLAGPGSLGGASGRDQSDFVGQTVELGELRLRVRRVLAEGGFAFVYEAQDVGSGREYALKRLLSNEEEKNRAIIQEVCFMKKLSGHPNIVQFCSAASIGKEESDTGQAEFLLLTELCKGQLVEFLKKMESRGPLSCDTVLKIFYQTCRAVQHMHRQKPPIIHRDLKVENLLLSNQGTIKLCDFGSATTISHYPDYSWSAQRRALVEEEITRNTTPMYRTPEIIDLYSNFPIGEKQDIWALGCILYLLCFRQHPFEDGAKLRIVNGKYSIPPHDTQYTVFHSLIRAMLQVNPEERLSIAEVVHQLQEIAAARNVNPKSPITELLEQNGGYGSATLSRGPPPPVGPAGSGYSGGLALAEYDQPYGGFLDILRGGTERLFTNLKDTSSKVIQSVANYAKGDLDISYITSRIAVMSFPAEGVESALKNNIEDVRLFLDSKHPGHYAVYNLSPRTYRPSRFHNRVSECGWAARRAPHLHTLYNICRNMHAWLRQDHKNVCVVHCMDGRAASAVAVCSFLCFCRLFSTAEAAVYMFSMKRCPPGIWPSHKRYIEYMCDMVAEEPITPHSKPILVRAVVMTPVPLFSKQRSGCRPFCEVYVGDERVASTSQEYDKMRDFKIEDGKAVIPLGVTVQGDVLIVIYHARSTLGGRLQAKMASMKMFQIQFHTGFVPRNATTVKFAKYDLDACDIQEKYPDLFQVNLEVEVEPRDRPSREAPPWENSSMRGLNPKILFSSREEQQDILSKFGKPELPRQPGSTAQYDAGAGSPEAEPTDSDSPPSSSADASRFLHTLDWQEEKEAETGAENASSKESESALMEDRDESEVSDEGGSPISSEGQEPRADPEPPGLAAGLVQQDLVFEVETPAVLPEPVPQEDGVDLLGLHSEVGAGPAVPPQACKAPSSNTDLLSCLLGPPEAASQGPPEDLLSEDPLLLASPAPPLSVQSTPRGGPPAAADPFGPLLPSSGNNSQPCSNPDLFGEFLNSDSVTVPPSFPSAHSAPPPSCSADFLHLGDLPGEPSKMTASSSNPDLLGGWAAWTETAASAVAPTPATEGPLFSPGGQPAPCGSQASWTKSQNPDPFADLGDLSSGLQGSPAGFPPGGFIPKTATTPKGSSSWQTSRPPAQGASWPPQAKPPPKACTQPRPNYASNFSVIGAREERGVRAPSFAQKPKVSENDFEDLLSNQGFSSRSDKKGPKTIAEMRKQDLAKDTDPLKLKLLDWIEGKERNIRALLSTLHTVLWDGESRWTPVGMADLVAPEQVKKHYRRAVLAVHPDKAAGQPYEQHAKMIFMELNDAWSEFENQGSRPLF

[9] = molecular target: TYRO3 (Homo sapiens, UniProt Q06418)
[10] = molecular target: STK38 (Homo sapiens, UniProt Q15208)
[11] = molecular target: MAPK6 (Homo sapiens, UniProt Q16659)
[12] = molecular target: MAPK11 (Homo sapiens, UniProt Q15759)
[13] = molecular target: WNK3 (Homo sapiens, UniProt Q9BYP7)
[14] = molecular target: ACVR1B (Homo sapiens, UniProt P36896)
[15] = molecular target: CLK1 (H148-I484) (Homo sapiens, UniProt P49759, V324A)
[16] = molecular target: PDPK1 (Homo sapiens, UniProt O15530)
[17] = molecular target: PRKG1 (Homo sapiens, UniProt Q13976)
[18] = molecular target: CDK17 (Homo sapiens, UniProt Q00537)

Sequence of TGFBR2 (P37173 whole entry): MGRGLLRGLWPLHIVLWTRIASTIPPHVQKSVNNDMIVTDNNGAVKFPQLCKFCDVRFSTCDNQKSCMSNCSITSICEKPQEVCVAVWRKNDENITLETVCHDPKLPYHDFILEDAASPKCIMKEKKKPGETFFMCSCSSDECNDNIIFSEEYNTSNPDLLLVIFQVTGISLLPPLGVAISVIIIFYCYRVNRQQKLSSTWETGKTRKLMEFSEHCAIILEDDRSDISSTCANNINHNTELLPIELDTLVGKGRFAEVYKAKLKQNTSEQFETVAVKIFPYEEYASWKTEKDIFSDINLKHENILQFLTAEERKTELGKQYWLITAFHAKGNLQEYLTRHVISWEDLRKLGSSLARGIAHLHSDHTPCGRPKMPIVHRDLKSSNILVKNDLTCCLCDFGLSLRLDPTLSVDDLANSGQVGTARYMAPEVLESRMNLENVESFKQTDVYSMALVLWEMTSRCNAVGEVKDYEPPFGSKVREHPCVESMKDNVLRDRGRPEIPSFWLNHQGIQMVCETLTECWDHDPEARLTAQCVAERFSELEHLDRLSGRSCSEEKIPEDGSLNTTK
Sequence of CDC42BPG (Q6DT37 whole entry): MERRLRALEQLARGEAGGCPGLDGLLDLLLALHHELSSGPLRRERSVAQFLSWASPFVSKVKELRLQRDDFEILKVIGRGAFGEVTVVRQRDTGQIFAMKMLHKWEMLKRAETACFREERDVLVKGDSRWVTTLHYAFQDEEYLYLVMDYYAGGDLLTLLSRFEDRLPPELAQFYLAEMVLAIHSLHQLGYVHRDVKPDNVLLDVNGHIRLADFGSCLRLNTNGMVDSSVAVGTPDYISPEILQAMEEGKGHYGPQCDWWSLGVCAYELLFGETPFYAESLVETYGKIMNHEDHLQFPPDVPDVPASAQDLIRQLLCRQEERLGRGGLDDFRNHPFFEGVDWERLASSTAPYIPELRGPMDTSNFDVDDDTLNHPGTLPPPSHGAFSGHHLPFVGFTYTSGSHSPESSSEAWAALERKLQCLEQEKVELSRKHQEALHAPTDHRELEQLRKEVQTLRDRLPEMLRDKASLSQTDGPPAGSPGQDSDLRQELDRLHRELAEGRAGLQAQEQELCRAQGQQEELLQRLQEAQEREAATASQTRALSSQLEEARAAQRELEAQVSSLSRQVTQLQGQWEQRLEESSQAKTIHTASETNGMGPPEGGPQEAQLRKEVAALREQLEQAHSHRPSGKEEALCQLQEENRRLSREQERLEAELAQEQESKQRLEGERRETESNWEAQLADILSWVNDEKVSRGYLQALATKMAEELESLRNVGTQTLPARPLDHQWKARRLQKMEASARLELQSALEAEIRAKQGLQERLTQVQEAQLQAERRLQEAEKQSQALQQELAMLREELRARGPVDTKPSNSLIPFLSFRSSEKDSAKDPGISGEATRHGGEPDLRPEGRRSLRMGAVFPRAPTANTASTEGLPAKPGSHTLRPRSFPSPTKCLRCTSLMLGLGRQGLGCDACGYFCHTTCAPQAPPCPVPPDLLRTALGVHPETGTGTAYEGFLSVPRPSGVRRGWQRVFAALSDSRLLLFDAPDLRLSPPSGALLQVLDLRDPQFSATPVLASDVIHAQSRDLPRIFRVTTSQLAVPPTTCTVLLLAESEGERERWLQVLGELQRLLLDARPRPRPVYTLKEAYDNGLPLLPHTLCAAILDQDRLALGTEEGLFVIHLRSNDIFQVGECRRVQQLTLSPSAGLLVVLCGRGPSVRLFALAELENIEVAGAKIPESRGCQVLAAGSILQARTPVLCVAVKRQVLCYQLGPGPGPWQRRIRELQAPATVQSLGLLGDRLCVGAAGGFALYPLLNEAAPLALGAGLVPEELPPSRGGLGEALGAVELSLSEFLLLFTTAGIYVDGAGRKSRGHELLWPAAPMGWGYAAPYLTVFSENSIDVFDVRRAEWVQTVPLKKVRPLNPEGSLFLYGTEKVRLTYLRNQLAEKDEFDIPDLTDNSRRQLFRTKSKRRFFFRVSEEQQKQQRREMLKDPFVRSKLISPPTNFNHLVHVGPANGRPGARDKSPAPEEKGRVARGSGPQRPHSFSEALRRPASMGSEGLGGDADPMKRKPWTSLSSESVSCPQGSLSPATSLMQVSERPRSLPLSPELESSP
Sequence of PRKG1 (Q13976 whole entry): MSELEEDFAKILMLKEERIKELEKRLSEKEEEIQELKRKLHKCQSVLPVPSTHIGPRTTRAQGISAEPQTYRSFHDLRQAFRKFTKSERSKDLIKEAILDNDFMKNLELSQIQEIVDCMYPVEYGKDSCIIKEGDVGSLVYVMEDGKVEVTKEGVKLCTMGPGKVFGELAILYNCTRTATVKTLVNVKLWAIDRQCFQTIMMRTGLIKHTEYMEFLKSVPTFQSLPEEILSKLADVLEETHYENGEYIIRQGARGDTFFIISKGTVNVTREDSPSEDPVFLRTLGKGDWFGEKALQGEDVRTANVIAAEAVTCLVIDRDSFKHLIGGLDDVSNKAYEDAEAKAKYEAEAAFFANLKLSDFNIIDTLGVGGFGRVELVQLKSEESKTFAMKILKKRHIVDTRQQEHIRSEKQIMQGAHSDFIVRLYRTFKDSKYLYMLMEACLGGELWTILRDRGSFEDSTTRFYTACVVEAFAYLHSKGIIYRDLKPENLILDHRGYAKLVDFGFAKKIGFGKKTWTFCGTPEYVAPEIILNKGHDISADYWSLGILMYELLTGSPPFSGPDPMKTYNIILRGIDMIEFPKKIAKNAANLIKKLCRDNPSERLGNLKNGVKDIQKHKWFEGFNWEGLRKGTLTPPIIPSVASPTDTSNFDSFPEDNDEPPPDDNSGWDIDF
Sequence of PDPK1 (O15530 whole entry): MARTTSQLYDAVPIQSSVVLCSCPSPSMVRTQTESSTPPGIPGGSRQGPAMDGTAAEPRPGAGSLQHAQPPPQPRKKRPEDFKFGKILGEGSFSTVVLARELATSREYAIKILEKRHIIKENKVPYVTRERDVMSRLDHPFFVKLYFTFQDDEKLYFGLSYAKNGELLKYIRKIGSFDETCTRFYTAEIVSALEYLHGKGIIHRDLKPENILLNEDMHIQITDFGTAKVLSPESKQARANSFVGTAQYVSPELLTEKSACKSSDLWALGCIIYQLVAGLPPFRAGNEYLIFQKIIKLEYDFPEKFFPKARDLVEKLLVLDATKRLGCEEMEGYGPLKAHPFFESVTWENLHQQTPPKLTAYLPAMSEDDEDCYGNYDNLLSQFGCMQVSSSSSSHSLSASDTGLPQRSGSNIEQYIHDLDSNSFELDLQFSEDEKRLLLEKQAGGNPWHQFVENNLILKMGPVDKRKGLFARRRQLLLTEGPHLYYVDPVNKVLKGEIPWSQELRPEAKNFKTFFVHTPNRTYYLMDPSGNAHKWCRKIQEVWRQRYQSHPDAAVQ
Sequence of CLK1 (H148-I484) (Homo sapiens, UniProt P49759) (P49759 148-484): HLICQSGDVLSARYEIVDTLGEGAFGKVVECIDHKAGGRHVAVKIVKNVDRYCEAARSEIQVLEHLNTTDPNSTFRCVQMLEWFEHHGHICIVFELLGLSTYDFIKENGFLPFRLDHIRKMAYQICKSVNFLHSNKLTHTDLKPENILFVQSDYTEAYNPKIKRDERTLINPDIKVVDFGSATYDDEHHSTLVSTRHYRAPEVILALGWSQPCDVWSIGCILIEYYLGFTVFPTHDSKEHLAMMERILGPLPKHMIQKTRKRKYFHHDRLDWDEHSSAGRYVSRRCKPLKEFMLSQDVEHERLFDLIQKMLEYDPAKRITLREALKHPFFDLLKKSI
Sequence of STK38 (Q15208 whole entry): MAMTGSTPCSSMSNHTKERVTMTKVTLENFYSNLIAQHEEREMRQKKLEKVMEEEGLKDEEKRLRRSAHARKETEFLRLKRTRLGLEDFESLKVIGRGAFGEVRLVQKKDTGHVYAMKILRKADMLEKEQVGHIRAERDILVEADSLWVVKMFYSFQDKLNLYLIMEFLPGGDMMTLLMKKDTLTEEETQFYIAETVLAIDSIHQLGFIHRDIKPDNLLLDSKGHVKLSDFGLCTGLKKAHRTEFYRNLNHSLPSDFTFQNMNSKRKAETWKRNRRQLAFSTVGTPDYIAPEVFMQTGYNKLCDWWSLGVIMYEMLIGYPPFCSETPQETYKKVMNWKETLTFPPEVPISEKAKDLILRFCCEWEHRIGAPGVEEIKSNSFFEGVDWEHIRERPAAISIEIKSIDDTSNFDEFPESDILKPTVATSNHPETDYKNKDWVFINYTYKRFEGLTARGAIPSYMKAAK
Sequence of ACVR1B (P36896 whole entry): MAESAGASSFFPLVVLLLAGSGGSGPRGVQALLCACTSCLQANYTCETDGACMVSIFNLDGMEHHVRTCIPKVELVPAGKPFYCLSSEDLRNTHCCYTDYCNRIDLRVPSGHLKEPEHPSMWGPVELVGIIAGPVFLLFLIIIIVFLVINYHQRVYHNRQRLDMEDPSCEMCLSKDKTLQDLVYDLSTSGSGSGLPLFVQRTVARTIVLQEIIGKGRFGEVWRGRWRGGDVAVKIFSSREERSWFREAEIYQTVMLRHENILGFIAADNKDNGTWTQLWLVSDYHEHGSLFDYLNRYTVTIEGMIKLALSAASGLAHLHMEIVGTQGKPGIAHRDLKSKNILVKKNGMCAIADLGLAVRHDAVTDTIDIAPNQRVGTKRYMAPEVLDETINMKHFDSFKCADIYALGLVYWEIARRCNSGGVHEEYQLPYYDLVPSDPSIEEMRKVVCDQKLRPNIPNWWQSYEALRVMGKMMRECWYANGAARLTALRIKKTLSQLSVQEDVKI
Sequence of CLK3 (R134-T484) (P49761 134-484): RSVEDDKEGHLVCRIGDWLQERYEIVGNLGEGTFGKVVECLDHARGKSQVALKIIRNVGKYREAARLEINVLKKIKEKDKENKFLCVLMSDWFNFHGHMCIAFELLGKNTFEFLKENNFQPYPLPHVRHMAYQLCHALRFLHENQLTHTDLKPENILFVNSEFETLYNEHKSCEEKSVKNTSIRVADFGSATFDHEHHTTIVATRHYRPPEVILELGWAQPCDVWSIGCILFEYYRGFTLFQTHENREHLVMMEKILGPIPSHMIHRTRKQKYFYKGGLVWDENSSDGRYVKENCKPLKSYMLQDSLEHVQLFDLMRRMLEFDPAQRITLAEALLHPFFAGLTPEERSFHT
Sequence of CLK1 (H148-I484) (Homo sapiens, UniProt P49759, V324A) (P49759 148-484 V324A): as the sequence (P49759 148-484) above, with V177A counted along it

ΔTm wild type CLK1 [1]: 7.2 °C | ΔTm wild type CLK3 [2]: 1.4 °C | ΔTm inhibitor 1 [3]: 3.4 °C | ΔTm inhibitor 1 [4]: 13.7 °C | ΔTm inhibitor 1 [5]: 0.4 °C | ΔTm inhibitor 1 [6]: 0.7 °C | ΔTm inhibitor 1 [7]: 0.6 °C | ΔTm inhibitor 1 [8]: 7.3 °C | ΔTm inhibitor 1 [9]: 0.4 °C | ΔTm inhibitor 1 [10]: 1.1 °C | ΔTm inhibitor 1 [11]: 0.4 °C | ΔTm inhibitor 1 [12]: 0.3 °C | ΔTm inhibitor 1 [13]: 0.0 °C | ΔTm inhibitor 1 [14]: 9.1 °C | ΔTm V324A CLK1 [15]: 4.9 °C
SMILES: CC(=O)c1cccc(-c2cnc3ccc(NCC4CC4)nn23)c1 [compound 1, K00135]

ΔTm inhibitor 2 [16]: 0.2 °C | ΔTm inhibitor 2 [5]: 0.0 °C | ΔTm inhibitor 2 [6]: 1.1 °C | ΔTm inhibitor 2 [7]: -1.3 °C | ΔTm inhibitor 2 [8]: 0.2 °C | ΔTm inhibitor 2 [17]: 1.6 °C | ΔTm inhibitor 2 [9]: 0.1 °C | ΔTm inhibitor 2 [10]: 0.4 °C | ΔTm inhibitor 2 [18]: 0.0 °C | ΔTm inhibitor 2 [11]: 0.0 °C | ΔTm inhibitor 2 [12]: 0.0 °C | ΔTm inhibitor 2 [13]: -0.3 °C
SMILES: CCN1/C(=C/C(C)=O)Sc2ccc(OC)cc21 [compound 2, TG003]

ΔTm wild type CLK1 [1]: 5.7 °C | ΔTm wild type CLK3 [2]: 0.1 °C | ΔTm inhibitor 4 [16]: 0.3 °C | ΔTm inhibitor 4 [3]: 2.2 °C | ΔTm inhibitor 4 [4]: 2.0 °C | ΔTm inhibitor 4 [8]: 3.3 °C | ΔTm inhibitor 4 [17]: 0.5 °C | ΔTm inhibitor 4 [18]: 0.4 °C | ΔTm inhibitor 4 [14]: 1.1 °C | ΔTm V324A CLK1 [15]: 2.4 °C
SMILES: Nc1nccc(-c2ccc3noc(-c4ccc(Cl)cc4)c3c2)n1 [compound 4, K00972]
